Measured values as given in patent US12303614B2, “Compositions and methods for improving mechanical properties of a tissue or for regenerating an injured or diseased tissue” (University of Rochester, priority 2019, dated 2025).
“Also recorded” adds a separate entry of the source.

Columns and labels:
HH43 chick embryos = assay: Gross development: anatomical staging and leg appearance of treated embryos; format: in vivo
Procedure: (§1) Fertilized white leghorn eggs (University of Connecticut poultry farm) were incubated at 37° C. under high humidity. For developmental characterizations, eggs were not injected. For other experiments, a single dose of sterile saline (control), 0.2% DMB (rigid paralysis), 0.2% pancuronium bromide (PB) (flaccid paralysis), 0.2% 4-AP (hypermotility), or 0.2% 4-AP and 5 mg BAPN per gram of embryo dry mass (to simultaneously induce hypermotility and inhibition of LOX activity) was injected at the air sac end of an HH43 egg and incubated for another 48 h, as previously described (10). DMB dosage was based on previous studies that paralyzed the embryo without affecting gross development (3). […] At specific timepoints, chick embryos were sacrificed by decapitation and staged based on anatomical features (15). The calcaneal tendon was homogenized in TRIzol LS reagent, snap frozen for protein and enzyme assays, or embedded for cryosectioning.

chick embryos [1] = assay: Embryo movement frequency after injection; format: in vivo; details: within 1 min of injection, lasted 48 h (data not shown)
Procedure: as §1

[2] = test system: HH43 chick embryo calcaneal tendons; assay: Fibrillar collagen content and organization by F-SHG two photon microscopy; format: in vivo; details: HH43 chick embryos, 48 h
Procedure: as §1
(§2) Calcaneal tendons of staged embryos were cryoembedded as previously described (10) and cryosectioned at 50 μm thickness.
Tendon cryosections were immersed in Ca^2+/Mg^2+-free phosphate buffered saline (PBS) to remove O.C.T. A 20× water objective imaged a 220×220 μm region in the center of tendon midsubstance in PBS. Collagen was characterized by F-SHG at 800 nm excitation, and signal was collected by a photomultiplier tube using a 405DF30 filter. Background was determined with laser off. Background was subtracted from each F-SHG image using MATLAB (MATHWORKS, MA) and then average pixel intensities of each image were calculated to assess collagen content per unit area.

[3] = test system: HH43 chick embryo calcaneal tendons; assay: Calcaneal tendon elastic modulus by force volume-AFM after in ovo treatment; format: in vivo; details: HH43 chick embryos, 48 h; for calcaneal tendon elastic modulus relative to controls: single in ovo injection, vs saline
Procedure: as §1, §2
Force volume-AFM was used to characterize tendon elastic modulus using previously established methods (10). Briefly, tendon cryosections were immersed in PBS to remove O.C.T. A silicon nitride tip probe (˜20 nm radius) with a spring constant of 0.06 N/m (BRUKER, CA) was used on an MFP-3D AFM (ASYLUM RESEARCH, CA) to obtain force curves in a 64×64 2-dimensional array over a 10 μm×10 μm tissue region in the center of the tendon midsubstance with a 1.0 μm indentation trigger point. The sample was indented at 6 μm/s, at which tendon elastic properties were previously characterized with negligible viscous effects (10). Elastic modulus was calculated by fitting force displacement curves at each indentation to the Hertzian model using equations adapted from a previous study (10).

LOX activity = LOX activity assay of calcaneal tendons after in ovo treatment; format: in vivo, chick; details: HH43 embryos treated in ovo, 48 h; for reduction of LOX activity levels of calcaneal tendons compared to saline controls: p<0.05
Procedure: as §1
Western blot to semi-quantitatively measure proLOX levels was performed with rabbit anti-proLOX antibody or rabbit anti-β-actin antibody (ABCAM, MA). ProLOX and β-actin levels were quantified by densitometry at ˜50 kDa and ˜40 kDa molecular bands, respectively. LOX activity of each sample was measured using a LOX activity assay kit (ABCAM, MA). Recombinant LOXL2 enzyme (R&D Systems, MN) was used as a positive control for each assay.

chick embryos [4] = details: HH36 to HH44 chick embryos, for at least 24 h, previous studies (14); cited from earlier work
[5] = test system: HH43 chick embryo calcaneal tendons; assay: Collagen crosslink density analysis (HP/collagen) after paralysis; format: in vivo; details: HH43 chick embryos, injections at 0 h and 24 h, 48 h of paralysis
Procedure: Briefly, HH43 chick embryos were either treated with saline (vehicle control), decamethonium bromide (DMB, THERMO FISHER), or pancuronium bromide (PB, THERMO FISHER). Treatments of DMB and PB were performed at 0 h and 24 h by injection through the air-pocket of each egg. After the 48 h of treatments, each embryo was sacrificed by decapitation, was staged, and the calcaneal tendons were dissected for collagen cross-link density analysis. For each biological sample (N=1), 5 tendons were pooled together (5 left calcaneal tendons from 5 chick embryos). In this experiment, collagen crosslink density analysis was performed for biological samples.

[6] = treated at HH43, harvested after 48 h, compared with non-injected HH45
[7] = treated at HH43 for 48 h, N ≥ 6, expected stage HH45

Compound	gross appearance of legs at harvest (HH43 chick embryos; [6])	Stage (HH) of embryos at harvest (mean ± standard deviation (std)) (HH43 chick embryos; [7])	increase of embryo movement frequency (chick embryos [1])	apparent collagen organization [2]	collagen content relative to controls [2]	increase of calcaneal tendon modulus relative to controls ([3]; hypermotility)	calcaneal tendon elastic modulus relative to controls [3]	LOX activity levels in calcaneal tendons compared to controls (LOX activity)	hypermotility induced by a single injection (chick embryos [4])	Stage (HH) of embryos at harvest (mean ± standard deviation (std)) (HH43 chick embryos; in vivo)	gross appearance of legs at harvest (HH43 chick embryos; in vivo)	reduction of calcaneal tendon modulus relative to controls ([3]; paralysis)	reduction of LOX activity levels of calcaneal tendons compared to saline controls (LOX activity)	hydroxylysyl pyridinoline (HP)/collagen ratio compared to saline-treated tendons [5]
Nc1ccncc1 [4-AP, 4-aminopyridine]	appeared similar to non-injected HH45 legs	45 ± 0.4 HH	200%	Neither treatment affected; also recorded: appeared normal	Neither treatment affected	2 fold	significantly upregulated; also recorded: higher	no effects	up to 400%	–	–	–	–	–
N#CCCN [BAPN, β-aminopropionitrile]	appeared similar to non-injected HH45 legs	45 ± 0.5 HH	–	appeared normal	–	–	reduced	–	–	–	–	–	–	–
C[N+](C)(C)CCCCCCCCCC[N+](C)(C)C [DMB, decamethonium bromide]	–	–	–	Neither treatment affected	Neither treatment affected	–	significantly reduced	significantly reduced	–	45 ± 0.4 HH	hyperextended digits	2 fold	2 fold	lower
CC(=O)O[C@H]1C[C@@H]2CC[C@@H]3[C@H](CC[C@@]4(C)[C@H]3C[C@H]([N+]3(C)CCCCC3)[C@@H]4OC(C)=O)[C@@]2(C)C[C@@H]1[N+]1(C)CCCCC1 [PB, pancuronium bromide]	–	–	–	–	–	–	–	significantly lower	–	–	–	–	2 fold	lower
